Measured values published in patent publication US12139472B2, “Inhibitors of advanced glycation end products” (priority 2019, dated 2024).

Tested on: CYP3A
Type: in vitro ADME, human
Details: HLM
Source text: Compound 5 (PTG-630 free base) and 7 additional compounds for CYP3A P450 inhibition.
Imidazole (and benzimidazole) containing drugs are ubiquitous in pharmacological practice; however, drug-drug interactions (DDI) have been observed with some imidazole-containing classes, such as the antifungal azoles typified by ketoconazole. It is believed that the imidazole moiety accounts for their ability to inhibit CYP3A, the major DDI enzyme that metabolizes up to 50% of common drugs. The compounds of the disclosure incorporate an imidazole moiety attached to a pyridine ring via the imidazole C-2. They all share an imidazo-hydroxypyridine theme that can bind redox metal ions, while differing in the nature of the X side-chain. The potential of the compounds of the disclosure for DDI was evaluated by screening their inhibition of CYP3A.
Two studies were conducted in human liver microsomes (HLM). Lead candidate PTG-630 was tested using the Eurofins G232 panel (Drug Metab Dispos. 2001 January; 29(1):23-9), where inhibition was measured against seven CYP enzymes; CYP3A4 was tested using two different substrates, midazolam and testosterone. In a second study, inhibition of CYP3A4 (midazolam substrate only) was compared for 8 compounds of interest. The test protocol involved one-point measurements in duplicate, where inhibition was measured at a fixed 10 μM concentration of candidate inhibitors. In all cases, the substrate for each CYP enzyme was at a concentration equal to its specific Km value that was independently obtained from an 8-point dose-response study. Based on the observed value for percent inhibition for each test compound, we calculated of an IC50 assuming a competitive mode of inhibition. If percent inhibition for an inhibitor at a concentration of [I] is denoted by P, then: IC50=[I]*(100−P)/P In the single-point assay, [I] is 10 μM. If measured inhibition is 10%, then IC50=10*(100-10)/10=90 μM. […] As discussed in Lin et al. (J Pharm Sci. 2007 September; 96(9):2485-93; doi: 10.1002/jps.20884), CYP inhibition is broadly interpreted as being “potent” if IC50<1 μM, “moderate” if 1 μM<IC50<10 μM, and “weak” if IC50>10 μM.

## Cc1ncc(CN2CCCCCC2)c(-c2ncc[nH]2)c1O [PTG-670]
midazolam, from one-point % inhibition at 10 μM, IC50=[I]*(100−P)/P
  Estimated IC50: — None
Substrate midazolam at Km, Inhib Conc. 1.0E−05 M
  P % inhib: −1.1%
